Reference: patent publication US7595395B2, “Gabaergic agents to treat memory deficits” (priority 2005, dated 2009)
Read-outs that look alike come from different tables or passages of the source.

Legend:
[1] = biological target: T1, α5β3γ2 benzodiazepine receptor GABA(A) isoform (UniProt P18507+P31644); assay: Radioligand competition binding, α5β3γ2 BzR/GABA(A) isoform; set-up: Ki α5; other: text; HEK-T cells (Roth et al.); species or system human and rat; settings: read-out: Ki α5; HEK-T cells (Roth et al.)
T1 sequence (P18507 1-475): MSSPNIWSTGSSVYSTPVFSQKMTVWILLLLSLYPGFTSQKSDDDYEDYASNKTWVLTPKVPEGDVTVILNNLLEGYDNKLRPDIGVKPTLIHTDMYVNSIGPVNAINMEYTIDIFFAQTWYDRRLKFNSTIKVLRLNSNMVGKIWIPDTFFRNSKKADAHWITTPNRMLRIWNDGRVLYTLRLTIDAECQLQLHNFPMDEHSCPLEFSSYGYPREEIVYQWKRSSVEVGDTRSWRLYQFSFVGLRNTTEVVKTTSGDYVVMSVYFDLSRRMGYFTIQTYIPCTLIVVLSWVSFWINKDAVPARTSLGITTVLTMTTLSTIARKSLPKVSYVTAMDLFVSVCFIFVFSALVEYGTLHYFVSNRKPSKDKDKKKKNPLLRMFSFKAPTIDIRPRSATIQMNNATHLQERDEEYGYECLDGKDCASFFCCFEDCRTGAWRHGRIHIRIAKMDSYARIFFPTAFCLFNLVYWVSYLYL
T1 sequence (P31644 1-462): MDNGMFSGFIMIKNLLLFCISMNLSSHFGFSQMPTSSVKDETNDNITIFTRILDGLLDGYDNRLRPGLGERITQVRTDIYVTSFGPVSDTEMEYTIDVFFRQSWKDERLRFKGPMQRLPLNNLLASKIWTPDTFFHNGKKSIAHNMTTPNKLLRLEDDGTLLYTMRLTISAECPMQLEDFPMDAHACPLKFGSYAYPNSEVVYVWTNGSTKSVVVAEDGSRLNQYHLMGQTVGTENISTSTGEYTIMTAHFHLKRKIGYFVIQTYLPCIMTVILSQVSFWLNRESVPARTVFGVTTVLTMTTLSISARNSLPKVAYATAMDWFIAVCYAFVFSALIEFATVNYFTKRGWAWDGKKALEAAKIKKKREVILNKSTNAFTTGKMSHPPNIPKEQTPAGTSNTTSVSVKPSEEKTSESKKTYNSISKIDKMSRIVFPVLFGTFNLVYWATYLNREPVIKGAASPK

[2] = biological target: T2, α3β3γ2 benzodiazepine receptor GABA(A) isoform (UniProt P18507+P34903); assay: Radioligand competition binding, α3β3γ2 BzR/GABA(A) isoform; set-up: species or system human and rat
T2 sequence (P18507 1-475): T1 sequence (P18507 1-475)
T2 sequence (P34903 1-492): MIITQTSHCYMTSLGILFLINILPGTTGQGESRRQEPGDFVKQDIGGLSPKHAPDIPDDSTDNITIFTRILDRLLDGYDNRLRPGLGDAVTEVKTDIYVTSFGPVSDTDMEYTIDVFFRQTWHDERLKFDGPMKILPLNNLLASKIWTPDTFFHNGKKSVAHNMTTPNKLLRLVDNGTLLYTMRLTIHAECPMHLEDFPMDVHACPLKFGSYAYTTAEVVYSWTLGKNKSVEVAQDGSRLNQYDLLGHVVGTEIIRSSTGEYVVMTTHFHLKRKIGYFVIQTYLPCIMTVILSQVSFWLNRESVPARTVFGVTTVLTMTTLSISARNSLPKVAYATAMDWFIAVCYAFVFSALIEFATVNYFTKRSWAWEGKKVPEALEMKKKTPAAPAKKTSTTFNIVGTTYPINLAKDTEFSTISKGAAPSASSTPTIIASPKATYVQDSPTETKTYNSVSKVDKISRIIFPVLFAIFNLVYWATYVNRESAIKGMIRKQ
Method: The affinity of all ligands at the 6 major recombinant GABAA/BzR subtypes was measured by competition for [^3H]Ro15-1788 binding to HEK-T cells expressing both human and rat GABAA/Bz receptors of composition α1β2γ2 (α1), α2β2γ2 (α2), α3β2γ2 (α3), α4β2γ2 (α4), α5β2γ2 (α5) and α6β2γ2 (α6). It is well known that the β2 and β3 subunits can be interchanged with no effect on Bz ligand affinity or efficacy. […] These studies are similar to those performed in the laboratory of Bryan Roth who has already expressed the receptors employing the work of Kucken et. al. and Gray et. al.
In brief, for membrane preparations, the cells were scraped on to the ice and diluted into 5 mL of phosphate buffered saline (pH=7.40) and cells pelleted by centrifugation for 5 min. at 4° C. The pellet was resuspended in 1 mL of 50 mM Tris-acetate buffer (pH 7.4) and centrifuged at 18,000 g for 20 min. […] Each pellet were diluted to 6 mL and then 100 μL of membranes were incubated with approximately 1 nM final concentration of [^3H]Ro 15-1788 in a total volume of 250 μL together with serial dilutions of test compound for 90 min. on ice. The membranes were harvested in polyethyleneimine-pretreated Whatman GF/C filters and after drying and addition of scintillation cocktail, counted in a scintillation counter. The cpm retained on the filters was plotted against log concentration (M) and fitted to one site competition equation to obtain the Ki using Graphpad Prizm (V4.0) using the Cheng-Prusoff approximation.

[3] = read-out: Ki α3, Table I, means of two determinations
[4] = read-out: α3, untitled table of lead compounds, unit inferred

SMILES	Ki [1] [nM]	Ki [2, 3] [nM]	Ki [2, 4] [nM]
CCc1ccc2c(c1)C(=O)N(C)Cc1c(C(=O)OCCCOC(=O)c3ncn4c3CN(C)C(=O)c3cc(CC)ccc3-4)ncn1-2 [XLi356, 1,3-Bis(8-ethyl-5,6-dihydro-5-methyl-6-oxo-4H-imidazo[1,5a][1,4]benzodiazepine-3-carboxy)propyl diester]	107		
CCOC(=O)c1ncn2c1CN=C(c1ccccc1)c1cc(-c3ccccc3)ccc1-2 [DM-I-81, Ethyl 8-phenyl-6-phenyl-4H-benzo[f]imidazo[1,5-a][1,4]diazepine-3-carboxylate]		> 2000	> 2000
COCc1ncn2c1CN(C)C(=O)c1cc(Cl)ccc1-2 [PWZ-029, methyl(8-chloro-5,6-dihydro-5-methyl-6-oxo-4H-imidazo[1,5-α][1,4]benzodiazepin-3-yl)methyl ether]		> 300	> 300
